≈ marks a conversion by molar mass, not a printed value. Where “and” joins values, the source holds several entries; their conditions need not be identical. Identical values can stand only once. Like-named read-outs stand apart in the source and are kept apart here.
How the values were obtained:
[1] = tested on: S. aureus isolates; assay: Broth microdilution (BMD) MIC, panel of isolates; assay type: cell-based; conditions: Staphylococcus aureus, wild-type susceptibility to oritavancin
Source text: To date, only the broth microdilution (BMD) minimal inhibitory concentration (MIC) test is a reference method accepted by the Clinical Laboratory Standards Institute (CLSI) for use in determining the susceptibility of a bacterial isolate to oritavancin (Methods for Dilution Antimicrobial Susceptibility Tests for Bacteria That Grow Aerobically; Approved Standard, CLSI document M7-A8, 8th ed. Clinical and Laboratory Standards Institute, Wayne, Pa. 2009; Performance Standards for Antimicrobial Susceptibility Testing; Eighteenth Informational Supplement, CLSI document M100-S18, 7th ed. Clinical and Laboratory Standards Institute, Wayne, Pa. 2008).

[2] = tested on: VISA NRS3; assay: Disk diffusion assay (zone of inhibition); assay type: cell-based, Staphylococcus aureus; conditions: for zone of inhibition at 360 µg/disc: Staphylococcus aureus, 360 μg oritavancin, 3 h prediffusion, average of 2 disks, read-out: Average zone diameter
Source text: (§1) The study was designed to identify conditions that improve oritavancin diffusion in agar and consequently yield a zone diameter ≧15 mm for the CLSI quality control strain MSSA ATCC 25923. Excipients that increased the disk diffusion of oritavancin in agar relative to disks containing only oritavancin were identified and selected for further study. […] A prediffusion step at room temperature was introduced to maximize oritavancin diffusion prior to initiation of bacterial growth. In this step, the antimicrobial disks were placed on agar plates seeded with a bacterial isolate and incubated at room temperature for 3 hours. Plates were then incubated overnight at 37° C. Zone diameters around the disks in which bacterial growth was inhibited were measured with a ruler and reported in millimeters.
(§2) Ethanol-sterilized Whatman paper disks (6 mm diameter) were allowed to dry then impregnated with 20 microliters of oritavancin solution containing total amounts ranging from 90 to 360 micrograms. Disks were allowed to dry at room temperature for various times prior to use.
(§3) Bacterial suspensions were prepared and adjusted to an optical density of 0.1 at 600 nm. Standard cation-adjusted Mueller Hinton agar plates (90 mm diameter) were seeded with bacterial suspensions by initially swabbing the center of plate then moving outward towards the edge. The plate was swabbed a second time, perpendicular to the orientation of the first swab. To assess the impact of prediffusion on diameter of inhibition zones, two disks were immediately placed on one half of the plate and the plate was incubated for 3 hours at room temperature. After 3 hours, two additional disks were placed on the other half of the plate then the plate was incubated overnight at 37° C. Zone diameters were measured with a ruler and reported in millimeters.
(§4) Oritavancin powder was dissolved in freshly-prepared solutions of the indicated excipients at concentrations of 0.625, 1.25, 2.5, 5, and 10 mg/ml (adjusted for potency based on lot 875561L00 purity of 83.1%) by vortexing for a minimum of 5 minutes. Oritavancin solutions in the various excipients, while not visually clear, were free from any apparent particulates as assessed visually. Sterile Oxoid blank disks were impregnated with 20 μl of these oritavancin solutions, resulting in oritavancin disk loads ranging from 12.5 to 200 μg. Unless indicated otherwise, disks were allowed to dry overnight at room temperature prior to use.
(§5) Bacterial suspensions from isolated colonies on overnight cation-adjusted Mueller Hinton agar plates were prepared in sterile saline and adjusted to an optical density of 0.1 at 600 nm Standard cation-adjusted Mueller Hinton agar plates (90 mm diameter) were seeded with bacterial suspensions by initially swabbing the center of plate then moving outward. Swabbing was continued at a right angle and then at an oblique angle to the first and second swabs. Disks were placed upon the seeded plates with sterile forceps. Plates were then incubated overnight at 37° C. and inhibition zone diameters were measured with a ruler and reported in millimeters.

[3] = tested on: hVISA NRS2; assay: Disk diffusion assay (zone of inhibition); assay type: cell-based, Staphylococcus aureus; conditions: for zone of inhibition at 90 µg/disc: 90 μg oritavancin; for zone of inhibition at 180 µg/disc: 180 μg oritavancin; for zone of inhibition at 12.5 µg/disc: 12.5 μg in 4% P80/Span 80 (1:1); for zone of inhibition at 200 µg/disc: 200 μg in 4% P80/Span 80 (1:1)
Source text: as §1, §2, §3, §4, §5

[4] = Staphylococcus aureus, NRS2, 192 h, NRS2, 2.5% P80, disks stored 8 days, prediffusion, read-out: Average zone diameter
[5] = Staphylococcus aureus, NRS2, 336 h, NRS2, 5% P80, disks stored 14 days, prediffusion, read-out: Average zone diameter
[6] = Staphylococcus aureus, NRS2, 336 h, NRS2, 10% P80, disks stored 14 days, prediffusion, read-out: Average zone diameter
[7] = Staphylococcus aureus, NRS2, NRS2, calcium alginate swab, dried overnight, read-out: Inhibition zone diameter
[8] = Staphylococcus aureus, NRS2, NRS2, cotton swab, dried overnight, estimate of diameter

CN[C@H](CC(C)C)C(=O)N[C@H]1C(=O)N[C@@H](CC(N)=O)C(=O)N[C@H]2C(=O)N[C@H]3C(=O)N[C@H](C(=O)N[C@H](C(=O)O)c4cc(O)cc(O)c4-c4cc3ccc4O)[C@H](O[C@H]3C[C@](C)(N)[C@@H](O)[C@H](C)O3)c3ccc(c(Cl)c3)Oc3cc2cc(c3O[C@@H]2O[C@H](CO)[C@@H](O)[C@H](O)[C@H]2O[C@H]2C[C@](C)(NCc3ccc(-c4ccc(Cl)cc4)cc3)[C@@H](O)[C@H](C)O2)Oc2ccc(cc2Cl)[C@H]1O [oritavancin, N-(4-(4-chlorophenyl)benzyl)A82846B]
MIC90 [1]: 0.12 µg/mL (≈ 0.0669 µM) | Inhibition zone diameter ([2]; 25 μg (1.25 mg/ml) in 4% P80/Span 80 (1:1), dried overnight): no zone | zone of inhibition at 360 µg/disc ([2]; excipient 5% P80, disks stored 5 days at room temperature): 14 mm | zone of inhibition at 360 µg/disc ([2]; excipient 10% HPCD, disks made same day): 16.8 mm | Inhibition zone diameter ([3]; NRS2, 25 μg (20 μl of 1.25 mg/ml) in 4% P80/Span 80 (1:1), calcium alginate swab, dried overnight): 10 mm and 12, 12 mm | zone of inhibition at 360 µg/disc ([3]; Staphylococcus aureus, NRS2, 3 h, NRS2, 360 μg oritavancin, excipient 10% HPCD, disks made same day, 3 h prediffusion, average of 2 disks, read-out: Average zone diameter): 17.5 mm | zone of inhibition at 90 µg/disc [3, 4]: 14 mm | zone of inhibition at 180 µg/disc [3, 4]: 14.8 mm | zone of inhibition at 360 µg/disc ([3]; Staphylococcus aureus, NRS2, 192 h, NRS2, 360 μg in 5% P80, Experiment 2, disks stored 8 days, no prediffusion, read-out: Zone diameter (mm ± SD)): 14.3 ± 0.4 mm | zone of inhibition at 360 µg/disc ([3]; Staphylococcus aureus, NRS2, 192 h, NRS2, 360 μg oritavancin, 2.5% P80, disks stored 8 days, prediffusion, read-out: Average zone diameter): 15 mm | zone of inhibition at 90 µg/disc [3, 5]: 15 mm | zone of inhibition at 90 µg/disc [3, 6]: 15.8 mm | zone of inhibition at 180 µg/disc [3, 5]: 16 mm | zone of inhibition at 180 µg/disc [3, 6]: 16 mm | zone of inhibition at 360 µg/disc ([3]; Staphylococcus aureus, NRS2, 336 h, NRS2, 360 μg in 5% P80, Experiment 1, disks stored 14 days, no prediffusion, read-out: Zone diameter (mm ± SD)): 15.5 mm | zone of inhibition at 360 µg/disc ([3]; Staphylococcus aureus, NRS2, 336 h, NRS2, 360 μg oritavancin, 5% P80, disks stored 14 days, prediffusion, read-out: Average zone diameter): 18 mm | zone of inhibition at 360 µg/disc ([3]; Staphylococcus aureus, NRS2, 336 h, NRS2, 360 μg oritavancin, 10% P80, disks stored 14 days, prediffusion, read-out: Average zone diameter): 16.5 mm | zone of inhibition at 12.5 µg/disc [3, 7]: 12.5 mm | zone of inhibition at 12.5 µg/disc [3, 8]: 13 mm | zone of inhibition at 1250 µg/mL ([3]; Staphylococcus aureus, NRS2, NRS2, 25 μg (20 μl of 1.25 mg/ml) in 4% P80/Span 80 (1:1), calcium alginate swab, dried overnight, read-out: Inhibition zone diameter): 16 mm | zone of inhibition at 25 µg/disc ([3]; Staphylococcus aureus, NRS2, NRS2, 25 μg in 4% P80/Span 80 (1:1), cotton swab, dried overnight, estimate of diameter): 17 mm | zone of inhibition at 50 µg/disc ([3]; Staphylococcus aureus, NRS2, NRS2, 50 μg in 4% P80/Span 80 (1:1), calcium alginate swab, dried overnight, read-out: Inhibition zone diameter): 15 mm | zone of inhibition at 50 µg/disc ([3]; Staphylococcus aureus, NRS2, NRS2, 50 μg in 4% P80/Span 80 (1:1), cotton swab, dried overnight, estimate of diameter): 17 mm | zone of inhibition at 50 µg/disc ([3]; Staphylococcus aureus, NRS2, NRS2, 50 μg, 4% P80/Span 80 ratio 50:50, dried overnight, estimate of diameter): 16 mm | zone of inhibition at 50 µg/disc ([3]; Staphylococcus aureus, NRS2, NRS2, 50 μg, 4% P80/Span 80 ratio 60:40, dried overnight, estimate of diameter): 15 mm | zone of inhibition at 50 µg/disc ([3]; Staphylococcus aureus, NRS2, NRS2, 50 μg, 4% P80/Span 80 ratio 70:30, dried overnight, estimate of diameter): 14 mm | zone of inhibition at 50 µg/disc ([3]; Staphylococcus aureus, NRS2, NRS2, 50 μg, 4% P80/Span 80 ratio 80:20, dried overnight, estimate of diameter): 14 mm | zone of inhibition at 50 µg/disc ([3]; Staphylococcus aureus, NRS2, NRS2, 50 μg, 4% P80/Span 80 ratio 90:10, dried overnight, estimate of diameter): 12 mm | zone of inhibition at 100 µg/disc ([3]; Staphylococcus aureus, NRS2, NRS2, 100 μg in 4% P80/Span 80 (1:1), calcium alginate swab, dried overnight, read-out: Inhibition zone diameter): 11 mm | zone of inhibition at 200 µg/disc [3, 7]: 10 mm | zone of inhibition at 200 µg/disc [3, 8]: 13 mm
